Values joined by “and” are separate entries in the source; they are usually repeats but may differ in a detail not shown here. Identical values can stand only once.
Assays:
382 unique human kinases [1] = biological target: T1, 382 unique human kinases (Homo sapiens, UniProt O75676); experiment: biochemical; format: biochemical; details: kinase MSK2/RPS6KA4, compound 10 uM; for remaining activity at 10 µM: read-out: % Enzyme Activity (relative to DMSO controls)
T1 construct: purchased Reaction Biology (HotSpot contract assay)

382 unique human kinases [2] = biological target: T2, 382 unique human kinases (Homo sapiens, UniProt P22607, K650E); experiment: biochemical; format: biochemical; details: FGFR3 (K650E), 10 uM; for remaining activity at 10 µM: read-out: % Enzyme Activity (relative to DMSO controls)
T2 construct: purchased Reaction Biology (HotSpot contract assay)

382 unique human kinases [3] = biological target: T3, 382 unique human kinases (Homo sapiens, UniProt Q13873); experiment: biochemical; format: biochemical; details: BMPR2, 10 uM; for remaining activity at 10 µM: read-out: % Enzyme Activity (relative to DMSO controls)
T3 construct: purchased Reaction Biology (HotSpot contract assay)
T3 sequence (Q13873 27-1038): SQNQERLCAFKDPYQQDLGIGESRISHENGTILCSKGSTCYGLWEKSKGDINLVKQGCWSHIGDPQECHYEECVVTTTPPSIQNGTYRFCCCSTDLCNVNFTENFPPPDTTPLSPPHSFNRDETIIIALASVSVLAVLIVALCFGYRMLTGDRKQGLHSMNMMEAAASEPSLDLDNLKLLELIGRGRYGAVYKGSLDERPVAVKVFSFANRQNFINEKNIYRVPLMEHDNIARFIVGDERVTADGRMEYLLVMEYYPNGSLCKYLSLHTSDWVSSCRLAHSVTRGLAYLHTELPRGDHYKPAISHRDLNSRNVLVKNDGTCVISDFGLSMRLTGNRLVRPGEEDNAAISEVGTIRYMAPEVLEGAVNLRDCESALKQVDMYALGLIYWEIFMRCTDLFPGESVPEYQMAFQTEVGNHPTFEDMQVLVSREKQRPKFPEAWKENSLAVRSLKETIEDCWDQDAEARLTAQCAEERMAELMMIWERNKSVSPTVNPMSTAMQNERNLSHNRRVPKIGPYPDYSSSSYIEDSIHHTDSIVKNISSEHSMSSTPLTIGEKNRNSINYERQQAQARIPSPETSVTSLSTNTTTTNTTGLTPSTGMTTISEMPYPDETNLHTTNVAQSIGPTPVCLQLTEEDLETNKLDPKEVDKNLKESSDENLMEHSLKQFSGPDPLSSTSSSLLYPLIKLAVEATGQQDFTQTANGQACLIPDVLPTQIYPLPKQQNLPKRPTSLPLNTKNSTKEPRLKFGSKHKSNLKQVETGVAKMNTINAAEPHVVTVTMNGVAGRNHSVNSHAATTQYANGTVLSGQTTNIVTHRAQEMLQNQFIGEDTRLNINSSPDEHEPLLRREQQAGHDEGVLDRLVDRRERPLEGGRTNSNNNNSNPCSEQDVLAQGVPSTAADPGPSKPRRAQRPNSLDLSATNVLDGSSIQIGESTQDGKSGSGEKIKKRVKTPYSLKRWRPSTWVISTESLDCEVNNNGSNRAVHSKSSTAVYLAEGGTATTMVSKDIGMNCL

382 unique human kinases [4] = biological target: T4, 382 unique human kinases (Homo sapiens, UniProt P07949, V804M); experiment: biochemical; format: biochemical; details: RET (V804M), 10 uM; for remaining activity at 10 µM: read-out: % Enzyme Activity (relative to DMSO controls)
T4 construct: purchased Reaction Biology (HotSpot contract assay)

382 unique human kinases [5] = biological target: T5, 382 unique human kinases (Homo sapiens, UniProt Q13470); experiment: biochemical; format: biochemical; details: TNK1, 10 uM; for remaining activity at 10 µM: read-out: % Enzyme Activity (relative to DMSO controls)
T5 construct: purchased Reaction Biology (HotSpot contract assay)
T5 sequence (Q13470 1-666): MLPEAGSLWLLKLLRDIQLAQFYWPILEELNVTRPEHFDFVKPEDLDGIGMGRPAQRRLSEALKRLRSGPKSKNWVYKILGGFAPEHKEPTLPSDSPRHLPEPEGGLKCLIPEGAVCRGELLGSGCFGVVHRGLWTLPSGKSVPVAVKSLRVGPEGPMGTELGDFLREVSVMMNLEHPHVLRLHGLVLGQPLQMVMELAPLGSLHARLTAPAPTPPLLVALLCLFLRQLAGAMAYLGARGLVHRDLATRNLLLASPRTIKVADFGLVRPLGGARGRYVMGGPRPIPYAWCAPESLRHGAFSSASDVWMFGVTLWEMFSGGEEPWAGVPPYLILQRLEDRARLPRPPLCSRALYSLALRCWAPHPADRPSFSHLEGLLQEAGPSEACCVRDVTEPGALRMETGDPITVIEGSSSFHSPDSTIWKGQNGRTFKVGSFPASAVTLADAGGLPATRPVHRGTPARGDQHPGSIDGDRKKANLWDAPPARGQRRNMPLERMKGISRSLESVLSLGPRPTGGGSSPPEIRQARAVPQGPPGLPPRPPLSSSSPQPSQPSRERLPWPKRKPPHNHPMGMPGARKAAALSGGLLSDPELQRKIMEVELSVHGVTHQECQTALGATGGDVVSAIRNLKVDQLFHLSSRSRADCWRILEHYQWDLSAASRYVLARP

TRAP1 = tested on: TRAP1; parameters: method as in ChEMBL23 (accessed: 23/08/2018); details: average of reported values; ref ChEMBL23 (accessed: 23/08/2018); cited from earlier work
382 unique human kinases [6] = biological target: T6, 382 unique human kinases (Homo sapiens, UniProt O95819); experiment: biochemical; format: biochemical; details: HGK/MAP4K4, 10 uM; for remaining activity at 10 µM: read-out: % Enzyme Activity (relative to DMSO controls)
T6 construct: purchased Reaction Biology (HotSpot contract assay)

382 unique human kinases [7] = biological target: T7, 382 unique human kinases (Homo sapiens, UniProt P06241, Y531F); experiment: biochemical; format: biochemical; details: FYN (Y531F), [ATP] 5 µM, compound 10 uM; for remaining activity at 10 µM: read-out: % Enzyme Activity (relative to DMSO controls)
T7 construct: purchased Reaction Biology (HotSpot contract assay)

382 unique human kinases [8] = biological target: T8, 382 unique human kinases (Homo sapiens, UniProt P45983); experiment: biochemical; format: biochemical; details: JNK1, 10 uM; for remaining activity at 10 µM: read-out: % Enzyme Activity (relative to DMSO controls)
T8 construct: purchased Reaction Biology (HotSpot contract assay)

PDK4/PDKH4 = biological target: T9, PDK4/PDKH4 (Homo sapiens, UniProt Q16654); experiment: HotSpot in vitro kinase radiometric assay; format: biochemical; details: for inhibition at 10 µM: read-out: % inhibition at 10 uM: PDK4, Fig 6C median ± standard deviation (n = 2)
T9 construct: purchased Reaction Biology (HotSpot contract assay)
Summary of the method: (§1)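 Off-target screen in a radioisotope catalytic assay: test compounds incubated with each kinase, its substrate, cofactors and 33P- or 32P-labelled ɣ-ATP. Filters retaining labelled product gave the signal.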

c-Src = biological target: T10, c-Src (Homo sapiens, UniProt P12931); experiment: HotSpot in vitro kinase radiometric assay; format: biochemical; details: for inhibition at 10 µM: read-out: % inhibition at 10 uM: SRC, Fig 6C median ± standard deviation (n = 2)
T10 construct: purchased Reaction Biology (HotSpot contract assay)
Summary of the method: as §1

BLK = biological target: T11, BLK (Homo sapiens, UniProt P51451); experiment: HotSpot in vitro kinase radiometric assay; format: biochemical; details: for inhibition at 10 µM: read-out: % inhibition at 10 uM: BLK, Fig 6C median ± standard deviation (n = 2)
T11 construct: purchased Reaction Biology (HotSpot contract assay)
Summary of the method: as §1

T4 sequence (P07949 29-1114 V804M): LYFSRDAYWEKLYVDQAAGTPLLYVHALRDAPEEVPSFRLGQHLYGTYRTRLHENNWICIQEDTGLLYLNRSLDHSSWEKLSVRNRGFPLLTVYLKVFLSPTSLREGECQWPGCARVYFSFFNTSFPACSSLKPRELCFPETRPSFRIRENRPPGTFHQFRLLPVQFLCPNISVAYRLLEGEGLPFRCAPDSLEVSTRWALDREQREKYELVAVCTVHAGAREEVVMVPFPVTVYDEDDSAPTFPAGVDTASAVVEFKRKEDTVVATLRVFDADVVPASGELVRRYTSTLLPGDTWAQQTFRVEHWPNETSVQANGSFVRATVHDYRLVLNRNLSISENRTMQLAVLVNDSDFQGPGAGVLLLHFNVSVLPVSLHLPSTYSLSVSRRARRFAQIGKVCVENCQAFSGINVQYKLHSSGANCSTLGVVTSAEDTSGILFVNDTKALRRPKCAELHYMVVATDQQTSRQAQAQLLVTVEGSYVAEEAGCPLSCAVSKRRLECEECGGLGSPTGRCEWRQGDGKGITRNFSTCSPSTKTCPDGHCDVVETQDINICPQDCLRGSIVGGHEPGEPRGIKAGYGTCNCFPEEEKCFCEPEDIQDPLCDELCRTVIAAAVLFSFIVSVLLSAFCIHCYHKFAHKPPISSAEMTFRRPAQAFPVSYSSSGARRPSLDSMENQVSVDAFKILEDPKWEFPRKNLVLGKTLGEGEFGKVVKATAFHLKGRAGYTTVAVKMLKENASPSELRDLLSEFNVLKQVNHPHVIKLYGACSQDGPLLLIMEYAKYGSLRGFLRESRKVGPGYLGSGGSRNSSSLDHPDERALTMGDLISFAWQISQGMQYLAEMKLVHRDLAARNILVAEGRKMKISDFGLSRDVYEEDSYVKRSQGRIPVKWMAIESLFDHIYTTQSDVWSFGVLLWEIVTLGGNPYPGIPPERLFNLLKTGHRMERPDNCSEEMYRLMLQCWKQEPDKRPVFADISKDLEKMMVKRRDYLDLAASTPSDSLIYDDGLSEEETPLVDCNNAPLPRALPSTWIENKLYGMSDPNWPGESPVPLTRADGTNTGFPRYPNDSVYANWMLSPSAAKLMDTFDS
T9 sequence (Q16654 whole entry): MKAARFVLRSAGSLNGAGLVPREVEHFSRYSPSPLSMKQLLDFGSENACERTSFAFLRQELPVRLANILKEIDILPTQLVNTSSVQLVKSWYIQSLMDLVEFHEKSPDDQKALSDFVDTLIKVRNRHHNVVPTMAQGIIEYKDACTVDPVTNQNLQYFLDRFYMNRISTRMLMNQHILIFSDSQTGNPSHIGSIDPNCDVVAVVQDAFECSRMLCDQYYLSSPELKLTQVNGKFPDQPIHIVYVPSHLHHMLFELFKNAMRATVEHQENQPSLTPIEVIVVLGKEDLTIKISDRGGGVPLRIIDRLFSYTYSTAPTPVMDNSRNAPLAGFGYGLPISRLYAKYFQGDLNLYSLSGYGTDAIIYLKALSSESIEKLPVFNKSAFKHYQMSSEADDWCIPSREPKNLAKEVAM
T6 sequence (O95819 whole entry): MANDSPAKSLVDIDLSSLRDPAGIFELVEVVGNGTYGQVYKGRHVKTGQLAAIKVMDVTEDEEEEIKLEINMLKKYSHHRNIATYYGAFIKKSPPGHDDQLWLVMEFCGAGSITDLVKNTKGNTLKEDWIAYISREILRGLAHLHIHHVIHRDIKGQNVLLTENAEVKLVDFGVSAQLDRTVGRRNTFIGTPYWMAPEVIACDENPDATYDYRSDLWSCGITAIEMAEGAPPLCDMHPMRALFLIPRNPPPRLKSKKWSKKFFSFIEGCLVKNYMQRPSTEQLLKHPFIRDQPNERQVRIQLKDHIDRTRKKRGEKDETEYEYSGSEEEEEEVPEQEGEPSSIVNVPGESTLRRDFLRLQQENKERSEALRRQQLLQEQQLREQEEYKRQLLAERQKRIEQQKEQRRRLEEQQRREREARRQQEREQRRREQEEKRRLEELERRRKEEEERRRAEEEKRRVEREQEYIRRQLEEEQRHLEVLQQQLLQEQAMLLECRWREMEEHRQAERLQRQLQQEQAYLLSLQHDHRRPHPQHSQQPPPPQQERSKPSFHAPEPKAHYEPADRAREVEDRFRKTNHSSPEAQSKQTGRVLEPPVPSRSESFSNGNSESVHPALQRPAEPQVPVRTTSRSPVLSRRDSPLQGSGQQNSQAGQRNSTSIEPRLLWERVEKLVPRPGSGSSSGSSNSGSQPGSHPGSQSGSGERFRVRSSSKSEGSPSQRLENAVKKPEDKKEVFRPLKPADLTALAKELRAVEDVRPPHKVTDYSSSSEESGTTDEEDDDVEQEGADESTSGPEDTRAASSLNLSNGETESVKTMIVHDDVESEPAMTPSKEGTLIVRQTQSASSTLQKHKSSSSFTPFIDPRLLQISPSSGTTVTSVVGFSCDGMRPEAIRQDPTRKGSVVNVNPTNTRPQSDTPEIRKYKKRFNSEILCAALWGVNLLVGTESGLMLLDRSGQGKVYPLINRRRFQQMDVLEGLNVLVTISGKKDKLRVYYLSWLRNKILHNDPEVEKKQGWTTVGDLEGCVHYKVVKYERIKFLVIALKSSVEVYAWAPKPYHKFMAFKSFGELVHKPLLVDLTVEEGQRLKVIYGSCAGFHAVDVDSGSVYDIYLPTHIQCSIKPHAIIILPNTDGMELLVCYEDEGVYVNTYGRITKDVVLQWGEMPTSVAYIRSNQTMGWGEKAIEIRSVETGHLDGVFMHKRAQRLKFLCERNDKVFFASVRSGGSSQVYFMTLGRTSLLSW
T7 sequence (P06241 whole entry Y531F): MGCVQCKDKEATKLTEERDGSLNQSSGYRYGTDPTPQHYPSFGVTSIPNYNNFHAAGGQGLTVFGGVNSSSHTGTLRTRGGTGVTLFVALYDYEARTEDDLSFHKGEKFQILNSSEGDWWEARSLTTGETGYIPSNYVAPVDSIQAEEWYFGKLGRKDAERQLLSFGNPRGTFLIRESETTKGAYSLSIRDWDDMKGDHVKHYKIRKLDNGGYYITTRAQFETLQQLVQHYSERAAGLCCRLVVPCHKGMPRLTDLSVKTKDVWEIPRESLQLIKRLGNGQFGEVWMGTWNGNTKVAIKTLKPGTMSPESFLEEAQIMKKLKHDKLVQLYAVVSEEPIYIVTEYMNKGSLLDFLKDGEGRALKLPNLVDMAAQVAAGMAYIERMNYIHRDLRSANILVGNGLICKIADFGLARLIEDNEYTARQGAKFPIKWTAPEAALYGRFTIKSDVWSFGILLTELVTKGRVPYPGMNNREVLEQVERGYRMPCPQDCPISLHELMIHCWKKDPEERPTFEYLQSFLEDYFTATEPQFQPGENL
T1 sequence (O75676 whole entry): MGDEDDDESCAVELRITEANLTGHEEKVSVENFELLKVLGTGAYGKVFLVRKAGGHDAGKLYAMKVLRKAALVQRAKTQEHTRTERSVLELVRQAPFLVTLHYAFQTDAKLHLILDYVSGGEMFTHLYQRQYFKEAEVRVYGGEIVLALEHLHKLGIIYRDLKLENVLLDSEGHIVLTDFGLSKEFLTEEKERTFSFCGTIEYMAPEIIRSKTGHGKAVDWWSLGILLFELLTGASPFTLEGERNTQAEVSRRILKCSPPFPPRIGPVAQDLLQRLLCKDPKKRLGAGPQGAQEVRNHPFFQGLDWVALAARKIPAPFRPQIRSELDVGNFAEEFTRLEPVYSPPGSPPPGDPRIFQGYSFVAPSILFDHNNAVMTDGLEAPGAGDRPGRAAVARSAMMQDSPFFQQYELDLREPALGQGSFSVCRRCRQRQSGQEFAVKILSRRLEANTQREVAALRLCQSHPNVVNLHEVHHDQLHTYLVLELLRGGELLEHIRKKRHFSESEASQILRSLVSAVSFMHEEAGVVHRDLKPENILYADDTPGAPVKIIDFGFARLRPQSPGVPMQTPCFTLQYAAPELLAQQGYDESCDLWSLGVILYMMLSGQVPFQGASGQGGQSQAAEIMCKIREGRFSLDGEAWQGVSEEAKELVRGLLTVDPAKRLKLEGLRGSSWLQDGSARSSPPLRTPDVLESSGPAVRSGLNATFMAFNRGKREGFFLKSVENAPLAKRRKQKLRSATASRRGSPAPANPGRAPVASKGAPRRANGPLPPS
T8 sequence (P45983 whole entry): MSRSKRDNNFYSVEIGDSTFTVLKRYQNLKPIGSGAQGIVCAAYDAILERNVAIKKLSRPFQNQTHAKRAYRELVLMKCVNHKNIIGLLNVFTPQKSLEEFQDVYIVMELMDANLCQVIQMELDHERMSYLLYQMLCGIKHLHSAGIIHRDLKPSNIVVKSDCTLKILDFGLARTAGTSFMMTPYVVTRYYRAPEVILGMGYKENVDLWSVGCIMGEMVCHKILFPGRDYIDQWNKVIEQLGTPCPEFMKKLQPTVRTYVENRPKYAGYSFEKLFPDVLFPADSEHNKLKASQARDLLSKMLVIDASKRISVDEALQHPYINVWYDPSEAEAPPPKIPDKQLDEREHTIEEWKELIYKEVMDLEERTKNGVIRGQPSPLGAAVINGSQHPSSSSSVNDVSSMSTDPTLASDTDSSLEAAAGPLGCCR
T11 sequence (P51451 whole entry): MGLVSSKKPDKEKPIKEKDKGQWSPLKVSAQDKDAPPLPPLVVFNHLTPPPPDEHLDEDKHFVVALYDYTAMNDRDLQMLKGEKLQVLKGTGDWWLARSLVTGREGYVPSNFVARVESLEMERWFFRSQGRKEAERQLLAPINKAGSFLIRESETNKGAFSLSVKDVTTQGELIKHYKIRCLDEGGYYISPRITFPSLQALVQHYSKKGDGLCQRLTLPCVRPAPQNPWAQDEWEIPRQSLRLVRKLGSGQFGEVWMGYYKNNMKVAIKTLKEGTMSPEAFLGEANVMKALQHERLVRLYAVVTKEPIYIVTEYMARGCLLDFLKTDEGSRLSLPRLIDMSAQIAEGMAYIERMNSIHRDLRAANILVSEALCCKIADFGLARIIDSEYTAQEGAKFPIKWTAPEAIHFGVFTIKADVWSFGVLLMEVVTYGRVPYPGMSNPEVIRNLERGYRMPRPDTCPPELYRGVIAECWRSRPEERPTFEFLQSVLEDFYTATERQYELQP

Row | SMILES | remaining activity at 10 µM (382 unique human kinases [1]) [%] | remaining activity at 10 µM (382 unique human kinases [2]) [%] | remaining activity at 10 µM (382 unique human kinases [3]) [%] | remaining activity at 10 µM (382 unique human kinases [4]) [%] | remaining activity at 10 µM (382 unique human kinases [5]) [%] | pActivity, TRAP1 (TRAP1) | remaining activity at 10 µM (382 unique human kinases [6]) [%] | remaining activity at 10 µM (382 unique human kinases [7]) [%] | remaining activity at 10 µM (382 unique human kinases [8]) [%] | inhibition at 10 µM (PDK4/PDKH4) [%] | inhibition at 10 µM (c-Src) [%] | inhibition at 10 µM (BLK) [%] | other results
1 | CC(C)c1cc(-c2n[nH]c(=O)n2-c2ccc3c(ccn3C)c2)c(O)cc1O [Ganetespib (STA9090)] | 87.3 | 66.5 | 65.3 | 81 | 65.8 | – | – | – | – | – | – | – | –
2 | CC(C)c1cc(-c2n[nH]c(=O)n2-c2ccc3c(ccn3C)c2)c(O)cc1O [Ganetespib] | – | – | – | – | – | 7.29 | 98.6 | 7.4 | 99.3 | – | – | – | –
3 | CCNC(=O)c1noc(-c2cc(C(C)C)c(O)cc2O)c1-c1ccc(CN2CCOCC2)cc1 [Luminespib (AUY-922)] | 94.4 | 101 | 108 | 98.7 | 97.5 | – | – | – | – | – | – | – | % Enzyme Activity (relative to DMSO controls) (382 unique human kinases [1]): 94.10%; % Enzyme Activity (relative to DMSO controls) (382 unique human kinases [2]): 98.78%; % Enzyme Activity (relative to DMSO controls) (382 unique human kinases [3]): 104.76%; % Enzyme Activity (relative to DMSO controls) (382 unique human kinases [4]): 97.95%; % Enzyme Activity (relative to DMSO controls) (382 unique human kinases [5]): 96.12%
4 | CCNC(=O)c1noc(-c2cc(C(C)C)c(O)cc2O)c1-c1ccc(CN2CCOCC2)cc1 [Luminespib] | – | – | – | – | – | 7.67 | 110 | 24.2 | 103 | 71 ± 2 | 65 ± 2 | 62 ± 1 | % Enzyme Activity (relative to DMSO controls) (382 unique human kinases [6]): 108.63%; % Enzyme Activity (relative to DMSO controls) (382 unique human kinases [7]): 23.48%; % Enzyme Activity (relative to DMSO controls) (382 unique human kinases [8]): 101.32%
5 | CCNC(=O)c1noc(-c2cc(Cl)c(O)cc2O)c1-c1ccc(OC)cc1 [VER-50589] | – | – | – | – | – | – | – | – | – | 98 ± 3 | 14 ± 25 | 3 ± 4 | % Enzyme Activity (relative to DMSO controls) (PDK4/PDKH4; PDK4/PDKH4, 10uM, ATP 30 uM, Data 1, Data 2): -0.13% and 4.42%; % Enzyme Activity (relative to DMSO controls) (c-Src; c-Src, 10uM, ATP 15 uM, Data 1, Data 2): 103.77% and 68.69%; % Enzyme Activity (relative to DMSO controls) (BLK; BLK, 10uM, ATP 10 uM, Data 1, Data 2): 99.82%; remaining activity at 10 µM (BLK; BLK, 10uM, ATP 10 uM, Data 1, Data 2, read-out: % Enzyme Activity (relative to DMSO controls)): 94%

— publication PMC8550792, “Evolution of kinase polypharmacology across HSP90 drug discovery” (Cell Chemical Biology, 2021)
